Source: PubChem BioAssay (NCI)
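A five-concentration, 48-hour dose response in 96-well plates underlies each endpoint, interpolated linearly between surrounding concentrations. TGI is the concentration that stops growth completely.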

Tested on: SK-MEL-2 melanoma
Test: NCI-60 cell line screen, 48 h

| SMILES | TGI |
| --- | --- |
| O=c1c(F)cn(Cc2c(Cl)cccc2Cl)c(=O)n1Cc1c(Cl)cccc1Cl | > 31.6 µM |
| COc1ccc(C2=CC(C(C)=C(C(N)=O)C(N)=O)C=C(c3ccc(Br)cc3)C2)c(OC)c1 (configuration not stated) | > 100 µM |
| CC(C)(CN1CCCCC1)C(/C=C/c1ccc(Cl)cc1)=N\NC(=O)N/N=C(/C=C/c1ccc(Cl)cc1)C(C)(C)CN1CCCCC1 | 22.8 µM |
| O=C1c2cccc3cc([N+](=O)[O-])cc(c23)C(=O)N1Nc1ccc([N+](=O)[O-])cc1[N+](=O)[O-] | > 100 µM |
| O=C1SC(SCc2ccccc2)=NC12CC2c1ccccc1 (configuration not stated) | 40.1 µM |
| N=c1oc2ccccc2cc1C(=O)NC12CC3CC(CC(C3)C1)C2 | 31.3 µM |
| O=C1NC2(CCN(CCc3ccccc3)CC2)Oc2ccccc21 | > 100 µM |
| Cc1cc(OC(=O)Nc2cccc3ccccc23)c(C(C)C)cc1C(=S)Nc1ccccc1 | 28.3 µM |
| COc1cc2c(/C=C3/C(=O)Nc4cccc(Cl)c43)c(Cl)[nH]c2cc1C | 12.3 µM |
| Cc1ccc(S(=O)(=O)N2C3C=CC(C3)[C@@H]2C(Cl)(Cl)Cl)cc1 (some centres not stated) | 35.5 µM |
| COCOC1/C=C/CCCCC(=O)C(C)C#CC1 (configuration not stated) | 21.2 µM |

Tested on: HL-60(TB) leukemia
Test: NCI-60 cell line screen, 48 h

| SMILES | TGI |
| --- | --- |
| O=c1c(F)cn(Cc2c(Cl)cccc2Cl)c(=O)n1Cc1c(Cl)cccc1Cl | > 31.6 µM |
| COc1ccc(C2=CC(C(C)=C(C(N)=O)C(N)=O)C=C(c3ccc(Br)cc3)C2)c(OC)c1 (configuration not stated) | > 100 µM |
| CC(C)(CN1CCCCC1)C(/C=C/c1ccc(Cl)cc1)=N\NC(=O)N/N=C(/C=C/c1ccc(Cl)cc1)C(C)(C)CN1CCCCC1 | > 19.9 µM |
| O=C1c2cccc3cc([N+](=O)[O-])cc(c23)C(=O)N1Nc1ccc([N+](=O)[O-])cc1[N+](=O)[O-] | 27.5 µM |
| O=C1SC(SCc2ccccc2)=NC12CC2c1ccccc1 (configuration not stated) | 21.5 µM |
| N=c1oc2ccccc2cc1C(=O)NC12CC3CC(CC(C3)C1)C2 | 30.7 µM |
| O=C1NC2(CCN(CCc3ccccc3)CC2)Oc2ccccc21 | > 100 µM |
| Cc1cc(OC(=O)Nc2cccc3ccccc23)c(C(C)C)cc1C(=S)Nc1ccccc1 | 15.1 µM |
| COc1cc2c(/C=C3/C(=O)Nc4cccc(Cl)c43)c(Cl)[nH]c2cc1C | 4.56 µM |
| Cc1ccc(S(=O)(=O)N2C3C=CC(C3)[C@@H]2C(Cl)(Cl)Cl)cc1 (some centres not stated) | > 47 µM |
| COCOC1/C=C/CCCCC(=O)C(C)C#CC1 (configuration not stated) | 4.33 µM |

Tested on: NCI-H460 lung
Test: NCI-60 cell line screen, 48 h

| SMILES | TGI |
| --- | --- |
| O=c1c(F)cn(Cc2c(Cl)cccc2Cl)c(=O)n1Cc1c(Cl)cccc1Cl | > 31.6 µM |
| COc1ccc(C2=CC(C(C)=C(C(N)=O)C(N)=O)C=C(c3ccc(Br)cc3)C2)c(OC)c1 (configuration not stated) | > 100 µM |
| CC(C)(CN1CCCCC1)C(/C=C/c1ccc(Cl)cc1)=N\NC(=O)N/N=C(/C=C/c1ccc(Cl)cc1)C(C)(C)CN1CCCCC1 | 10.2 µM |
| O=C1c2cccc3cc([N+](=O)[O-])cc(c23)C(=O)N1Nc1ccc([N+](=O)[O-])cc1[N+](=O)[O-] | 36.2 µM |
| O=C1SC(SCc2ccccc2)=NC12CC2c1ccccc1 (configuration not stated) | 41.4 µM |
| N=c1oc2ccccc2cc1C(=O)NC12CC3CC(CC(C3)C1)C2 | 31.4 µM |
| O=C1NC2(CCN(CCc3ccccc3)CC2)Oc2ccccc21 | > 100 µM |
| Cc1cc(OC(=O)Nc2cccc3ccccc23)c(C(C)C)cc1C(=S)Nc1ccccc1 | 47.1 µM |
| COc1cc2c(/C=C3/C(=O)Nc4cccc(Cl)c43)c(Cl)[nH]c2cc1C | 3.78 µM |
| Cc1ccc(S(=O)(=O)N2C3C=CC(C3)[C@@H]2C(Cl)(Cl)Cl)cc1 (some centres not stated) | 35.5 µM |
| COCOC1/C=C/CCCCC(=O)C(C)C#CC1 (configuration not stated) | 23.9 µM |

Tested on: MCF7 breast
Test: NCI-60 cell line screen, 48 h

| SMILES | TGI |
| --- | --- |
| O=c1c(F)cn(Cc2c(Cl)cccc2Cl)c(=O)n1Cc1c(Cl)cccc1Cl | > 31.6 µM |
| COc1ccc(C2=CC(C(C)=C(C(N)=O)C(N)=O)C=C(c3ccc(Br)cc3)C2)c(OC)c1 (configuration not stated) | > 100 µM |
| CC(C)(CN1CCCCC1)C(/C=C/c1ccc(Cl)cc1)=N\NC(=O)N/N=C(/C=C/c1ccc(Cl)cc1)C(C)(C)CN1CCCCC1 | > 35.3 µM |
| O=C1c2cccc3cc([N+](=O)[O-])cc(c23)C(=O)N1Nc1ccc([N+](=O)[O-])cc1[N+](=O)[O-] | > 31.6 µM |
| O=C1SC(SCc2ccccc2)=NC12CC2c1ccccc1 (configuration not stated) | 40.1 µM |
| N=c1oc2ccccc2cc1C(=O)NC12CC3CC(CC(C3)C1)C2 | 18.3 µM |
| O=C1NC2(CCN(CCc3ccccc3)CC2)Oc2ccccc21 | > 100 µM |
| Cc1cc(OC(=O)Nc2cccc3ccccc23)c(C(C)C)cc1C(=S)Nc1ccccc1 | 34.7 µM |
| COc1cc2c(/C=C3/C(=O)Nc4cccc(Cl)c43)c(Cl)[nH]c2cc1C | 8.35 µM |
| Cc1ccc(S(=O)(=O)N2C3C=CC(C3)[C@@H]2C(Cl)(Cl)Cl)cc1 (some centres not stated) | > 100 µM |
| COCOC1/C=C/CCCCC(=O)C(C)C#CC1 (configuration not stated) | 14.8 µM |

Tested on: LOX IMVI melanoma
Test: NCI-60 cell line screen, 48 h

| SMILES | TGI |
| --- | --- |
| O=c1c(F)cn(Cc2c(Cl)cccc2Cl)c(=O)n1Cc1c(Cl)cccc1Cl | > 31.6 µM |
| COc1ccc(C2=CC(C(C)=C(C(N)=O)C(N)=O)C=C(c3ccc(Br)cc3)C2)c(OC)c1 (configuration not stated) | > 100 µM |
| CC(C)(CN1CCCCC1)C(/C=C/c1ccc(Cl)cc1)=N\NC(=O)N/N=C(/C=C/c1ccc(Cl)cc1)C(C)(C)CN1CCCCC1 | 5.97 µM |
